Experimental data from PubChem BioAssay AID1919014 (Molecular Pharmacology Branch, DTP, NCI, 2023).
Several values for one entry are separate records, joined by “and”; a condition that tells them apart may be missing. Equal values may be shown once.

Test system: NCI-H1341 complex spheroids, percent test/control
Test: Anticancer human tumor NCI-H1341 cell line growth inhibition [AhR];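 also: spheroids exposed to agents for seven days before readout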
Settings: for viability, T/C: stronger effect = lower value; active = viability on the fitted dose curve at most 10% of control; inactive = the rest
Method in brief: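 Agents were dosed in half-log steps down from roughly clinical Cmax, or from 10 microM where Cmax was unknown, alone and with AhR antagonists. Read-out: percent test/control growth of tumor spheroids containing HUVEC and MSC stromal cells.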

[1] = curve of first compound, second compound 0.1 µM
[2] = curve of first compound, second compound 0.316 µM
[3] = curve of first compound, second compound 1 µM
[4] = curve of first compound, second compound 3.16 µM
[5] = curve of first compound, second compound 10 µM
[6] = second compound 0.1 µM, first compound 0.000316 µM
[7] = second compound 0.1 µM, first compound 0.001 µM
[8] = second compound 0.1 µM, first compound 0.00316 µM
[9] = second compound 0.1 µM, first compound 0.01 µM
[10] = second compound 0.1 µM, first compound 0.0316 µM
[11] = second compound 0.1 µM, first compound 0.1 µM
[12] = second compound 0.316 µM, first compound 0.000316 µM
[13] = second compound 0.316 µM, first compound 0.001 µM
[14] = second compound 0.316 µM, first compound 0.00316 µM
[15] = second compound 0.316 µM, first compound 0.01 µM
[16] = second compound 0.316 µM, first compound 0.0316 µM
[17] = second compound 0.316 µM, first compound 0.1 µM
[18] = second compound 1 µM, first compound 0.000316 µM
[19] = second compound 1 µM, first compound 0.001 µM
[20] = second compound 1 µM, first compound 0.00316 µM
[21] = second compound 1 µM, first compound 0.01 µM
[22] = second compound 1 µM, first compound 0.0316 µM
[23] = second compound 1 µM, first compound 0.1 µM
[24] = second compound 3.16 µM, first compound 0.000316 µM
[25] = second compound 3.16 µM, first compound 0.001 µM
[26] = second compound 3.16 µM, first compound 0.00316 µM
[27] = second compound 3.16 µM, first compound 0.01 µM
[28] = second compound 3.16 µM, first compound 0.0316 µM
[29] = second compound 3.16 µM, first compound 0.1 µM
[30] = second compound 10 µM, first compound 0.000316 µM
[31] = second compound 10 µM, first compound 0.001 µM
[32] = second compound 10 µM, first compound 0.00316 µM
[33] = second compound 10 µM, first compound 0.01 µM
[34] = second compound 10 µM, first compound 0.0316 µM
[35] = second compound 10 µM, first compound 0.1 µM
[36] = second compound 0.1 µM, first compound 0.316 µM
[37] = second compound 0.1 µM, first compound 1 µM
[38] = second compound 0.316 µM, first compound 0.316 µM
[39] = second compound 0.316 µM, first compound 1 µM
[40] = second compound 1 µM, first compound 0.316 µM
[41] = second compound 1 µM, first compound 1 µM
[42] = second compound 3.16 µM, first compound 0.316 µM
[43] = second compound 3.16 µM, first compound 1 µM
[44] = second compound 10 µM, first compound 0.316 µM
[45] = second compound 10 µM, first compound 1 µM
[46] = second compound 0.1 µM, first compound 3.16 µM
[47] = second compound 0.1 µM, first compound 10 µM
[48] = second compound 0.316 µM, first compound 3.16 µM
[49] = second compound 0.316 µM, first compound 10 µM
[50] = second compound 1 µM, first compound 3.16 µM
[51] = second compound 1 µM, first compound 10 µM
[52] = second compound 3.16 µM, first compound 3.16 µM
[53] = second compound 3.16 µM, first compound 10 µM
[54] = second compound 10 µM, first compound 3.16 µM
[55] = second compound 10 µM, first compound 10 µM

Cn1ncnc1C1c2n[nH]c(=O)c3cc(F)cc(c23)NC1c1ccc(F)cc1 (stereo unspecified) + Cc1cncc(-c2nc(NCCc3c[nH]c4ccccc34)c3ncn(C(C)C)c3n2)c1
inactive: viability, T/C [6] 99.9% | viability, T/C [7] 98.5% | viability, T/C [8] 93.4% | viability, T/C [9] 89.3% | viability, T/C [10] 80.6% | viability, T/C [11] 69.1% | viability, T/C [12] 87% | viability, T/C [13] 86.8% | viability, T/C [14] 89.2% | viability, T/C [15] 91.7% | viability, T/C [16] 66.8% | viability, T/C [17] 73.4% | viability, T/C [18] 78.2% | viability, T/C [19] 79.8% | viability, T/C [20] 88.2% | viability, T/C [21] 95.6% | viability, T/C [22] 80.6% | viability, T/C [23] 64.5% | viability, T/C [24] 73.9% | viability, T/C [25] 75.6% | viability, T/C [26] 75.6% | viability, T/C [27] 72.6% | viability, T/C [28] 77.2% | viability, T/C [29] 62.5% | viability, T/C [30] 38.7% | viability, T/C [31] 40.6% | viability, T/C [32] 43.9% | viability, T/C [33] 42.1% | viability, T/C [34] 36.1% | viability, T/C [35] 40.2%
> 100 nM: IC50 [1] | IC50 [2] | IC50 [3] | IC50 [4]
< 0.316 nM: IC50 [5]

Nc1ncn(C2CC(O)C(CO)O2)c(=O)n1 (stereo unspecified) + Cc1cncc(-c2nc(NCCc3c[nH]c4ccccc34)c3ncn(C(C)C)c3n2)c1
inactive: viability, T/C [8] 83% | viability, T/C [9] 89.2% | viability, T/C [10] 81.4% | viability, T/C [11] 54.7% | viability, T/C [36] 48.8% | viability, T/C [37] 28.1% | viability, T/C [14] 75.5% | viability, T/C [15] 86.1% | viability, T/C [16] 78.2% | viability, T/C [17] 55.6% | viability, T/C [38] 52.1% | viability, T/C [39] 27.9% | viability, T/C [20] 73% | viability, T/C [21] 82.7% | viability, T/C [22] 68% | viability, T/C [23] 45.3% | viability, T/C [40] 45.9% | viability, T/C [41] 33.3% | viability, T/C [26] 71.4% | viability, T/C [27] 72% | viability, T/C [28] 69.2% | viability, T/C [29] 70.2% | viability, T/C [42] 53.7% | viability, T/C [43] 38% | viability, T/C [32] 25.7% | viability, T/C [33] 26.9% | viability, T/C [34] 21.3% | viability, T/C [35] 19.5% | viability, T/C [44] 20.1% | viability, T/C [45] 18.9%
481 nM: IC50 [4]
< 3.16 nM: IC50 [5]
80.4 nM: IC50 [3]
264 nM: IC50 [2]
206 nM: IC50 [1]

CCc1c2c(nc3ccc(O)cc13)-c1cc3c(c(=O)n1C2)COC(=O)[C@]3(O)CC
10.5 nM and 19.6 nM and 12.3 nM: IC50 (curve of compound)
inactive: viability, T/C (compound 0.000949 µM) 89.8% and 92.6% and 89% | viability, T/C (compound 0.003 µM) 77% and 86.1% and 83.9% | viability, T/C (compound 0.00949 µM) 46.3% and 51.3% and 49.4% | viability, T/C (compound 0.03 µM) 34.4% and 45.9% and 36.6% | viability, T/C (compound 0.0949 µM) 27.4% and 34.4% and 28.5% | viability, T/C (compound 0.3 µM) 13.3% and 18.2% and 17%

CC[C@@]1(O)C(=O)OCc2c1cc1n(c2=O)Cc2cc3c(CN(C)C)c(O)ccc3nc2-1 + Cc1cncc(-c2nc(NCCc3c[nH]c4ccccc34)c3ncn(C(C)C)c3n2)c1
< 0.316 nM: IC50 [5]
7.91 nM: IC50 [4]
21.4 nM: IC50 [2]
inactive: viability, T/C [6] 90.4% | viability, T/C [7] 81.1% | viability, T/C [8] 69.8% | viability, T/C [9] 64% | viability, T/C [10] 42.5% | viability, T/C [11] 38.4% | viability, T/C [12] 67.3% | viability, T/C [13] 76.8% | viability, T/C [14] 75.5% | viability, T/C [15] 63.2% | viability, T/C [16] 43.5% | viability, T/C [17] 38.2% | viability, T/C [18] 68.8% | viability, T/C [19] 76.1% | viability, T/C [20] 77.2% | viability, T/C [21] 60.8% | viability, T/C [22] 40.9% | viability, T/C [23] 32.2% | viability, T/C [24] 72.9% | viability, T/C [25] 74.8% | viability, T/C [26] 66.6% | viability, T/C [27] 45.7% | viability, T/C [28] 37.1% | viability, T/C [29] 35.5% | viability, T/C [30] 25.8% | viability, T/C [31] 24.8% | viability, T/C [32] 24.9% | viability, T/C [33] 18% | viability, T/C [34] 19.2% | viability, T/C [35] 15.1%
23.6 nM: IC50 [1]
18.7 nM: IC50 [3]

COc1cc(C2c3cc4c(cc3C(OC3OC5COC(C)OC5C(O)C3O)C3COC(=O)C23)OCO4)cc(OC)c1O (stereo unspecified) + CC(CO)NC(=O)c1cc(-c2ccc(Cl)cc2)nn(-c2cnn(C)c2)c1=O
673 nM: IC50 [2]
inactive: viability, T/C [10] 85.9% | viability, T/C [11] 84.6% | viability, T/C [36] 65.2% | viability, T/C [37] 50.4% | viability, T/C [46] 44.8% | viability, T/C [47] 33.3% | viability, T/C [16] 72.4% | viability, T/C [17] 69.1% | viability, T/C [38] 55.5% | viability, T/C [39] 44.8% | viability, T/C [48] 39.4% | viability, T/C [49] 28.7% | viability, T/C [22] 74.2% | viability, T/C [23] 76.5% | viability, T/C [40] 54.4% | viability, T/C [41] 44.3% | viability, T/C [50] 41.3% | viability, T/C [51] 36.1% | viability, T/C [28] 74.6% | viability, T/C [29] 75.6% | viability, T/C [42] 48.2% | viability, T/C [43] 40.2% | viability, T/C [52] 41.1% | viability, T/C [53] 28.6% | viability, T/C [34] 63.5% | viability, T/C [35] 56.8% | viability, T/C [44] 40.6% | viability, T/C [45] 33.4% | viability, T/C [54] 33.2% | viability, T/C [55] 27.3%
471 nM: IC50 [3]
1190 nM: IC50 [1]
294 nM: IC50 [4]
135 nM: IC50 [5]

CC(C)c1c(-c2ccccc2)nc2c(C#N)c[nH]n2c1=O + Cc1cncc(-c2nc(NCCc3c[nH]c4ccccc34)c3ncn(C(C)C)c3n2)c1
> 10000 nM: IC50 [1] | IC50 [2] | IC50 [3] | IC50 [4]
< 31.6 nM: IC50 [5]
inactive: viability, T/C [10] 90.7% | viability, T/C [11] 83.7% | viability, T/C [36] 86.6% | viability, T/C [37] 81.3% | viability, T/C [46] 69.6% | viability, T/C [47] 58% | viability, T/C [16] 75.5% | viability, T/C [17] 87.2% | viability, T/C [38] 95.5% | viability, T/C [39] 75.1% | viability, T/C [48] 75.8% | viability, T/C [49] 72.5% | viability, T/C [22] 75.9% | viability, T/C [23] 78.6% | viability, T/C [40] 78.5% | viability, T/C [41] 75.3% | viability, T/C [50] 78.9% | viability, T/C [51] 68% | viability, T/C [28] 79.9% | viability, T/C [29] 73.6% | viability, T/C [42] 74.6% | viability, T/C [43] 67.6% | viability, T/C [52] 63.5% | viability, T/C [53] 67.4% | viability, T/C [34] 18% | viability, T/C [35] 20.1% | viability, T/C [44] 21% | viability, T/C [45] 20.2% | viability, T/C [54] 16.2% | viability, T/C [55] 19.5%

O=C(C=Cc1cccc(S(=O)(=O)Nc2ccccc2)c1)NO
425 nM and 423 nM and 295 nM: IC50 (curve of compound)
inactive: viability, T/C (compound 0.0316 µM) 91.7% and 96.1% and 95.8% | viability, T/C (compound 0.1 µM) 87.7% and 85.4% and 80.2% | viability, T/C (compound 0.316 µM) 61.3% and 59% and 42.5% | viability, T/C (compound 1 µM) 17% and 24% and 28%
active: viability, T/C (compound 3.16 µM) 7.15% and 7.86% and 8.15% | viability, T/C (compound 10 µM) 1.07% and 0.78% and 0.36%

Nc1ccccc1NC(=O)c1ccc(CNC(=O)OCc2cccnc2)cc1
24.3% and 40.5% and 16.6%: viability, T/C (compound 1 µM)
457 nM and 718 nM and 183 nM: IC50 (curve of compound)
active: viability, T/C (compound 3.16 µM) 5.76% and 6.13% and 5.26% | viability, T/C (compound 10 µM) 0.69% and 0.9% and 0.3%
inactive: viability, T/C (compound 0.0316 µM) 86.1% and 87.6% and 78.7% | viability, T/C (compound 0.1 µM) 92.3% and 84.5% and 75% | viability, T/C (compound 0.316 µM) 59.9% and 74.8% and 27.3%
